Data reported in PubChem BioAssay AID192 (DTP/NCI, 2004).
Toxic doses and inconclusive results are not listed. How the source made its calls: active means survival T/C of 150% or more; inactive means T/C below 125% in these data.

System: BDF1 mice, B16 melanoma ip, median survival T/C
Assay: NCI In Vivo Anticancer Drug Screen. Data for tumor model B16 Melanoma (intraperitoneal) in B6D2F1 (BDF1) mice
Conditions: endpoint: median survival time, higher = longer survival
Outline: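 In this screen, activity was judged from survival or tumor size in treated versus vehicle-treated tumor-bearing mice, reported as T/C.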

[1] = dose: 100.0 mg/kg/injection, schedule: Q01DX009 (ip), vehicle: Klucel (hydroxypropylcellulose) (HPC)
[2] = dose: 200.0 mg/kg/injection, schedule: Q01DX009 (ip), vehicle: Klucel (hydroxypropylcellulose) (HPC)
[3] = dose: 1.56 mg/kg/injection, schedule: Q01DX009 (ip), vehicle: saline
[4] = dose: 6.25 mg/kg/injection, schedule: Q01DX009 (ip), vehicle: saline
[5] = dose: 50.0 mg/kg/injection, schedule: Q01DX009 (ip), vehicle: saline with Tween-80
[6] = dose: 100.0 mg/kg/injection, schedule: Q01DX009 (ip), vehicle: saline with Tween-80
[7] = dose: 3.12 mg/kg/injection, schedule: Q01DX009 (ip), vehicle: saline
[8] = dose: 200.0 mg/kg/injection, schedule: Q01DX009 (ip), vehicle: saline with Tween-80
[9] = dose: 3.12 mg/kg/injection, schedule: Q01DX009 (ip), vehicle: saline with Tween-80
[10] = dose: 12.5 mg/kg/injection, schedule: Q01DX009 (ip), vehicle: saline with Tween-80
[11] = dose: 25.0 mg/kg/injection, schedule: Q01DX009 (ip), vehicle: saline with Tween-80
[12] = dose: 12.5 mg/kg/injection, schedule: Q01DX009 (ip), vehicle: Klucel (hydroxypropylcellulose) (HPC)
[13] = dose: 25.0 mg/kg/injection, schedule: Q01DX009 (ip), vehicle: Klucel (hydroxypropylcellulose) (HPC)

Measured: T/C

CCCCCCCCCCCCCCCCCC[N+](C)(C)C (tested in a mixture with another compound)
inactive: dose: 0.1 mg/kg/injection, schedule: Q01DX009 (ip), vehicle: saline sonified 90 % of control | dose: 2.0 mg/kg/injection, schedule: Q01DX009 (ip), vehicle: saline sonified 86 % of control | dose: 4.0 mg/kg/injection, schedule: Q01DX009 (ip), vehicle: saline sonified 86 % of control

COc1cccc2c1C(=O)c1c(O)c3c(c(O)c1C2=O)CC(O)(C(C)=O)CC3OC1CC(NC(=O)C(CCCCN)NC(=O)C2CCCN2)C(O)C(C)O1 (stereo not given)
inactive: dose: 10.0 mg/kg/injection, schedule: Q01DX001 (ip), vehicle: water 117 % of control | dose: 20.0 mg/kg/injection, schedule: Q01DX001 (ip), vehicle: water 123 % of control
active: dose: 40.0 mg/kg/injection, schedule: Q01DX001 (ip), vehicle: water 158 % of control | dose: 80.0 mg/kg/injection, schedule: Q01DX001 (ip), vehicle: water 191 % of control

O=C(C(=O)c1cc(Br)ccc1O)c1cc(Br)ccc1O
inactive: [1] 96 % of control | [2] 106 % of control

CCCCN(C)N=Nc1ccc(CCCC(=O)OCC)cc1
inactive: [3] 97 % of control | dose: 3.13 mg/kg/injection, schedule: Q01DX009 (ip), vehicle: saline 100 % of control | [4] 100 % of control

CC[P+](c1ccccc1)(c1ccccc1)c1ccccc1
inactive: dose: 1.25 mg/kg/injection, schedule: Q04DX003 (ip), vehicle: saline 97 % of control | dose: 2.5 mg/kg/injection, schedule: Q04DX003 (ip), vehicle: saline 93 % of control | dose: 5.0 mg/kg/injection, schedule: Q04DX003 (ip), vehicle: saline 95 % of control

Oc1c(Br)cc(Br)cc1/C=N/N=C/c1cc(Br)cc(Br)c1O
inactive: [1] 90 % of control | [2] 87 % of control

Clc1ncnc2nc[nH]c12
inactive: dose: 50.0 mg/kg/injection, schedule: Q01DX009 (ip), vehicle: saline sonified 92 % of control | [5] 86 % of control | dose: 100.0 mg/kg/injection, schedule: Q01DX009 (ip), vehicle: saline sonified 97 % of control | [6] 97 % of control | dose: 200.0 mg/kg/injection, schedule: Q01DX009 (ip), vehicle: saline sonified 110 % of control

C=C(C)[C@]12CC(C)C34OC(/C=C\C=C\CCCCCCCCC)(O[C@@H]1[C@@H]3[C@@H]1O[C@]1(CO)[C@@H](O)[C@]1(O)C(=O)C(C)=C[C@@H]41)O2 (stereo not given in full)
inactive: dose: 0.09 mg/kg/injection, schedule: Q01DX009 (ip), vehicle: alcohol 88 % of control | dose: 0.18 mg/kg/injection, schedule: Q01DX009 (ip), vehicle: saline + alcohol 98 % of control | dose: 0.19 mg/kg/injection, schedule: Q01DX009 (ip), vehicle: alcohol 88 % of control | dose: 0.37 mg/kg/injection, schedule: Q01DX009 (ip), vehicle: saline + alcohol 89 % of control

O=C(CBr)OCCOc1ccccc1
inactive: dose: 5.0 mg/kg/injection, schedule: Q01DX009 (ip), vehicle: saline sonified 87 % of control | dose: 10.0 mg/kg/injection, schedule: Q01DX009 (ip), vehicle: saline sonified 90 % of control | dose: 20.0 mg/kg/injection, schedule: Q01DX009 (ip), vehicle: saline sonified 102 % of control | dose: 40.0 mg/kg/injection, schedule: Q01DX009 (ip), vehicle: saline sonified 92 % of control

O=c1[nH]c(Cl)ncc1F
inactive: dose: 37.5 mg/kg/injection, schedule: Q01DX009 (ip), vehicle: Klucel (hydroxypropylcellulose) (HPC) 87 % of control

C#CCOCC(O)CN (stereo not given)
inactive: dose: 100.0 mg/kg/injection, schedule: Q04DX003 (ip), vehicle: saline 104 % of control | dose: 200.0 mg/kg/injection, schedule: Q04DX003 (ip), vehicle: saline 100 % of control | dose: 400.0 mg/kg/injection, schedule: Q04DX003 (ip), vehicle: saline 102 % of control

C=C1C(=O)O[C@@H]2[C@H](O)[C@@H](C)[C@@H]3C=CC(=O)[C@@]3(C)[C@H](OC(=O)C=C(C)C)[C@H]12
inactive: dose: 2.5 mg/kg/injection, schedule: Q01DX009 (ip), vehicle: Klucel (hydroxypropylcellulose) (HPC) 104 % of control | [7] 102 % of control | dose: 5.0 mg/kg/injection, schedule: Q01DX009 (ip), vehicle: Klucel (hydroxypropylcellulose) (HPC) 119 % of control | [4] 86 % of control | dose: 10.0 mg/kg/injection, schedule: Q01DX009 (ip), vehicle: Klucel (hydroxypropylcellulose) (HPC) 113 % of control

CC1=NN(c2cccc(Cl)c2)C(=O)C1
inactive: [5] 108 % of control | [6] 109 % of control | [8] 101 % of control

ClCCN(CCCl)CCCN1c2ccccc2Sc2ccc(Cl)cc21
inactive: [9] 120 % of control | [10] 120 % of control | [11] 117 % of control

NC(=O)/C=C/C(=O)c1c(Cl)cccc1Cl
inactive: dose: 0.78 mg/kg/injection, schedule: Q01DX009 (ip), vehicle: saline with Tween-80 103 % of control | dose: 1.56 mg/kg/injection, schedule: Q01DX009 (ip), vehicle: saline with Tween-80 106 % of control | [9] 112 % of control

Cc1ccc(NC(=O)Nc2cccc3ccccc23)cc1Cl
inactive: [12] 94 % of control | [13] 88 % of control

CC(=O)OC1CCC(C(C)(C)C)CC1 (stereo not given)
inactive: [5] 113 % of control | [6] 91 % of control

C=C(Br)CN(CC)CC
inactive: dose: 6.25 mg/kg/injection, schedule: Q01DX009 (ip), vehicle: Klucel (hydroxypropylcellulose) (HPC) 100 % of control | [12] 92 % of control | [13] 103 % of control

CNc1ccc(O)cc1
inactive: dose: 6.25 mg/kg/injection, schedule: Q01DX009 (ip), vehicle: saline with Tween-80 92 % of control | [10] 92 % of control | [11] 95 % of control

Nc1nc(Br)c2ccccc2c1-c1ccc([N+](=O)[O-])cc1
inactive: [8] 91 % of control

CC(=O)Nc1ccc(OC(=O)Nc2cccc3ccccc23)cc1
inactive: dose: 50.0 mg/kg/injection, schedule: Q04DX003 (ip), vehicle: Klucel (hydroxypropylcellulose) (HPC) 96 % of control | dose: 100.0 mg/kg/injection, schedule: Q04DX003 (ip), vehicle: Klucel (hydroxypropylcellulose) (HPC) 106 % of control | dose: 200.0 mg/kg/injection, schedule: Q04DX003 (ip), vehicle: Klucel (hydroxypropylcellulose) (HPC) 93 % of control

COc1cc2c(cc1OC)C1=CC(=O)N3CCCC34OS(=O)OC14CC2 (stereo not given)
inactive: [1] 110 % of control | [2] 103 % of control | dose: 400.0 mg/kg/injection, schedule: Q01DX009 (ip), vehicle: Klucel (hydroxypropylcellulose) (HPC) 101 % of control

O=C(O)C(O)C(O)C(=O)O.O=C(O)C(O)C(O)C(=O)O.[O]=[V].[O]=[V] (stereo not given)
inactive: dose: 12.5 mg/kg/injection, schedule: Q01DX009 (ip), vehicle: saline 94 % of control | dose: 12.5 mg/kg/injection, schedule: Q04DX003 (ip), vehicle: saline 100 % of control | dose: 25.0 mg/kg/injection, schedule: Q01DX009 (ip), vehicle: saline 87 % of control | dose: 25.0 mg/kg/injection, schedule: Q04DX003 (ip), vehicle: saline 100 % of control | dose: 50.0 mg/kg/injection, schedule: Q04DX003 (ip), vehicle: saline 86 % of control

CCCCOCCN1CCN(CCCN2c3ccccc3Sc3ccc(C(F)(F)F)cc32)CC1
inactive: dose: 0.29 mg/kg/injection, schedule: Q04DX003 (ip), vehicle: saline 89 % of control | dose: 0.58 mg/kg/injection, schedule: Q04DX003 (ip), vehicle: saline 102 % of control | dose: 0.78 mg/kg/injection, schedule: Q01DX009 (ip), vehicle: saline 112 % of control | dose: 1.17 mg/kg/injection, schedule: Q04DX003 (ip), vehicle: saline 107 % of control | [3] 115 % of control | dose: 2.34 mg/kg/injection, schedule: Q04DX003 (ip), vehicle: saline 89 % of control | [7] 107 % of control

COc1ccc(NC2=CC(C)(C(=O)O)OC2=O)cc1 (stereo not given)
inactive: dose: 12.5 mg/kg/injection, schedule: Q04DX003 (ip), vehicle: saline with Tween-80 93 % of control | dose: 25.0 mg/kg/injection, schedule: Q04DX003 (ip), vehicle: saline with Tween-80 102 % of control | dose: 50.0 mg/kg/injection, schedule: Q04DX003 (ip), vehicle: saline with Tween-80 100 % of control
